# According to patent publication US20110319392A1, “Thiazole Sulfonamide And Oxazole Sulfonamide Kinase Inhibitors” (priority 2009, published 2011):
# Key:
# Colo205 tumor cells = assay: Cell growth inhibition assay (CellTiter-Glo), Colo205; type: cell-based, Human; conditions: Homo sapiens, COLO 205, 72 h; 3 days incubation
# Procedure, shortened: (§1)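 Cells plated at 500 cells/well in their growth media, dosed next day with nine-step 1:3 compound dilutions (final DMSO 0.2%), then incubated 3 days at 37° C, 5% CO2. Total ATP read by CellTiter-Glo luminescence as a surrogate for cell number; IC50 interpolated from 4-parameter fit versus DMSO controls.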
# SK-MEL-28 tumor cells = assay: Cell growth inhibition assay (CellTiter-Glo), SK-MEL-28; type: cell-based, Human; conditions: Homo sapiens, SK-MEL-28, 72 h; 3 days incubation
# Procedure, shortened: as §1
# HN5 tumor cells = assay: Cell growth inhibition assay (CellTiter-Glo), HN5; type: cell-based, Human; conditions: Homo sapiens, 72 h; 3 days incubation
# Procedure, shortened: (§2)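 Readout was CellTiter-Glo luminescence (total ATP, surrogate for cell number) after 3-day exposure at 37° C, 5% CO2 to 1:3 serial compound dilutions in 0.2% final DMSO. Seeding was 500 cells/well; IC50 derived by 4-parameter fit relative to vehicle-treated wells.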
# SK-MEL-3 tumor cells = assay: Cell growth inhibition assay (CellTiter-Glo), SK-MEL-3; type: cell-based, Human; conditions: for IC50: Homo sapiens, SK-MEL3
# Procedure, shortened: as §2
# BT474 tumor cells = assay: Cell growth inhibition assay (CellTiter-Glo), BT474; type: cell-based, Human; conditions: Homo sapiens, BT-474, 72 h, 3 days incubation
# B-Raf = B-Raf (Homo sapiens, UniProt P15056); assay: B-Raf Accelerated MEK ATPase assay (BRAMA), Method A or B; type: biochemical; conditions: Method B: final MEK 150 nM, single end point read
# Sequence of B-Raf (P15056 whole entry): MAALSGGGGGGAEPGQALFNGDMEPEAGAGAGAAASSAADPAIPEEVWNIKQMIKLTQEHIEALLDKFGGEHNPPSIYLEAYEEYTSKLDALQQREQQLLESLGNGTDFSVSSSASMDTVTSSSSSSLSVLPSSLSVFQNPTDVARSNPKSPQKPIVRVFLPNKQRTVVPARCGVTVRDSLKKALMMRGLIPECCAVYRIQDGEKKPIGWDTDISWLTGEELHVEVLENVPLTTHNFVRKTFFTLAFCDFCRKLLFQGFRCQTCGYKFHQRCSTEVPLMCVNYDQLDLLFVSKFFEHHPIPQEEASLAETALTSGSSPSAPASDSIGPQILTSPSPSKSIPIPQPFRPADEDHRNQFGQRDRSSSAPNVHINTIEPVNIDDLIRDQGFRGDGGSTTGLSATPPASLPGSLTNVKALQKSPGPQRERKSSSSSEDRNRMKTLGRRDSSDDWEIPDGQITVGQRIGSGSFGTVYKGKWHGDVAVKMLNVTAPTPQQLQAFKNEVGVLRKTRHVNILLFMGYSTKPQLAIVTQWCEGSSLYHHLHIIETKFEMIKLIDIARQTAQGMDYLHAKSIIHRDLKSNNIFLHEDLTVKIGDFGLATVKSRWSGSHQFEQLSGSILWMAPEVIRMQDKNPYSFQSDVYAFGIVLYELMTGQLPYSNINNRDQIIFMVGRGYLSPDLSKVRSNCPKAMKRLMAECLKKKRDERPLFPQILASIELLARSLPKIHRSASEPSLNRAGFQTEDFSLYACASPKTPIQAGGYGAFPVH
# Procedure, shortened: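 Activated Raf plus non-phosphorylated MEK drives MEK-mediated ATP hydrolysis; ADP formation coupled via pyruvate kinase/lactate dehydrogenase to NADH oxidation. Method A read kinetically; Method B used 150 nM final MEK and a single end-point read.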
# A375P F11s tumor cells = assay: Cell growth inhibition assay (CellTiter-Glo), A375P F11s; type: cell-based, Human; conditions: for IC50: Homo sapiens
# Procedure, shortened: as §2
# HT-29 tumor cells = assay: Cell growth inhibition assay (CellTiter-Glo), HT-29; type: cell-based, Human; conditions: Homo sapiens
# Procedure, shortened: as §2
Compound,IC50 (Colo205 tumor cells) [nM],IC50 (SK-MEL-28 tumor cells) [nM],IC50 (HN5 tumor cells) [nM],IC50 (SK-MEL-3 tumor cells) [nM],IC50 (BT474 tumor cells) [nM],IC50 (B-Raf) [nM],IC50 (A375P F11s tumor cells) [nM],IC50 (HT-29 tumor cells) [nM],Activity in SK-MEL-3 Tumor Cells (SK-MEL-3 tumor cells),Activity in A375P F11s Tumor Cells (A375P F11s tumor cells)
CC(=O)N1CCN(c2ccc(Nc3nccc(-c4sc(C(C)C)nc4-c4cccc(NS(=O)(=O)c5cccc(C(F)(F)F)c5)c4)n3)cn2)CC1 [Example 70],100 to 1000,100 to 1000,> 1000,100 to 1000,> 1000,100 to 1000,100 to 1000,> 1000,,
CC(C)c1nc(-c2ccc(F)c(NS(=O)(=O)c3c(F)cccc3F)c2)c(-c2ccnc(Nc3ccc(N4CCN5CCOC[C@H]5C4)nc3)n2)s1 [Example 97],< 100,< 100,> 1000,< 100,> 1000,< 100,< 100,> 1000,,
CCOc1ccc(Nc2nccc(-c3sc(C(C)C)nc3-c3ccc(F)c(NS(=O)(=O)c4c(F)cccc4F)c3)n2)cc1N1CCN(CCF)CC1 [Example 98],100 to 1000,100 to 1000,> 1000,100 to 1000,> 1000,< 100,100 to 1000,> 1000,,
CC(C)(C)c1nc(-c2ccc(F)c(NS(=O)(=O)c3c(F)cccc3F)c2)c(-c2ccnc(Nc3ccc(N4CCN(CCF)CC4)c(F)c3)n2)s1 [Example 99],< 100,100 to 1000,> 1000,100 to 1000,> 1000,< 100,100 to 1000,> 1000,,
CC(C)c1nc(-c2ccnc(NS(=O)(=O)c3c(F)cccc3F)c2)c(-c2ccnc(Nc3ccc(N4CCN(CCF)CC4)c(F)c3)n2)s1 [Example 100],< 100,< 100,< 100,< 100,> 1000,< 100,< 100,100 to 1000,,
CC(C)c1nc(-c2cc(F)c(F)c(NS(=O)(=O)c3cccc(F)c3)c2)c(-c2ccnc(Nc3ccc(N4CCN(CCF)CC4)c(F)c3)n2)s1 [Example 101],100 to 1000,100 to 1000,100 to 1000,100 to 1000,> 1000,< 100,100 to 1000,100 to 1000,,
CC(C)c1nc(-c2ccc(F)c(NS(=O)(=O)c3c(F)cccc3F)c2)c(-c2ccnc(Nc3ccncc3)n2)s1 [Example 102],100 to 1000,100 to 1000,> 1000,100 to 1000,> 1000,< 100,100 to 1000,100 to 1000,,
CN1CCC(c2nc(-c3ccc(F)c(NS(=O)(=O)c4c(F)cccc4F)c3)c(-c3ccnc(Nc4ccc(N5CCOCC5)nc4)n3)s2)CC1 [Example 106],100 to 1000,100 to 1000,100 to 1000,< 100,> 1000,< 100,< 100,100 to 1000,,
CC(C)c1nc(-c2ccc(F)c(NS(=O)(=O)c3ccccc3C#N)c2)c(-c2ccnc(Nc3ccc(N4CCOCC4)nc3)n2)s1 [Example 107],100 to 1000,100 to 1000,> 1000,100 to 1000,> 1000,< 100,100 to 1000,100 to 1000,,
CCOc1ccc(Nc2nccc(-c3sc(N4CCCC4)nc3-c3cccc(NS(=O)(=O)c4c(F)cccc4F)c3)n2)cc1N1CCN(CCS(C)(=O)=O)CC1 [Example 109],< 100,< 100,> 1000,< 100,100 to 1000,< 100,< 100,100 to 1000,,
CN(C)c1nc(-c2ccc(F)c(NS(=O)(=O)c3c(F)cccc3F)c2)c(-c2ccnc(Nc3ccc(N4CCN(S(C)(=O)=O)CC4)nc3)n2)s1 [Example 112],100 to 1000,100 to 1000,> 1000,100 to 1000,> 1000,< 100,100 to 1000,100 to 1000,,
CC(C)c1nc(-c2ccc(F)c(NS(=O)(=O)c3c(F)cccc3F)c2)c(-c2ccnc(Nc3cccc(CCS(N)(=O)=O)c3)n2)s1 [Example 113],100 to 1000,100 to 1000,> 1000,100 to 1000,100 to 1000,< 100,100 to 1000,> 1000,,
O=S(=O)(Nc1cc(-c2nc(N3CCCC3)oc2-c2ccnc(Nc3ccc(N4CCN(CCF)CC4)c(F)c3)n2)ccc1F)c1c(F)cccc1F [Example 114],100 to 1000,100 to 1000,> 1000,,> 1000,100 to 1000,100 to 1000,> 1000,+ (activity of >1 μM in SK-MEL-3 tumor cells),
Cc1cc(Nc2nccc(-c3sc(C(C)C)nc3-c3ccc(F)c(NS(=O)(=O)c4c(F)cccc4F)c3)n2)ccn1 [Example 116],< 100,< 100,> 1000,100 to 1000,> 1000,< 100,100 to 1000,100 to 1000,,
CC(C)c1nc(-c2ccc(F)c(NS(=O)(=O)c3c(F)cccc3F)c2)c(-c2ccnc(Nc3ccnc(N4CCOCC4)c3)n2)s1 [Example 117],< 100,< 100,100 to 1000,100 to 1000,> 1000,< 100,100 to 1000,100 to 1000,,
COc1cc(N2CCN(CCS(C)(=O)=O)CC2)c(C)cc1Nc1nccc(-c2sc(C(C)(C)C)nc2-c2cccc(NS(=O)(=O)c3c(F)cccc3F)c2)n1 [Example 120],< 100,100 to 1000,> 1000,< 100,> 1000,< 100,100 to 1000,100 to 1000,,
O=S(=O)(Nc1cc(-c2nc(N3CCOCC3)sc2-c2ccnc(Nc3ccc(N4CCOCC4)nc3)n2)ccc1F)c1c(F)cccc1F [Example 121],< 100,100 to 1000,100 to 1000,100 to 1000,> 1000,< 100,100 to 1000,100 to 1000,,
O=S(=O)(Nc1cccc(-c2nc(N3CCOCC3)sc2-c2ccnc(Nc3ccc(N4CCOCC4)nc3)n2)c1F)c1c(F)cccc1F [Example 122],< 100,< 100,100 to 1000,< 100,> 1000,< 100,< 100,< 100,,
CC(C)c1nc(-c2cccc(NS(=O)(=O)c3c(F)cccc3F)c2F)c(-c2ccnc(Nc3ccc(N4CCOCC4)nc3)n2)s1 [Example 123],< 100,< 100,100 to 1000,< 100,> 1000,< 100,< 100,< 100,,
Cc1cc(N2CCOCC2)ncc1Nc1nccc(-c2sc(N3CCCC3)nc2-c2cccc(NS(=O)(=O)c3c(F)cccc3F)c2)n1 [Example 124],100 to 1000,100 to 1000,> 1000,,> 1000,< 100,,> 1000,+ (activity of >1 μM in SK-MEL-3 tumor cells),+ (activity of >1 μM in A375P F11s tumor cells)
